Experiment [1] deals with T1, prostate-specific membrane antigen (PSMA) (Sus scrofa, UniProt O77564).
T1 construct: gene FOLH1; pig salivary gland tissue cryosections
Kind of experiment: radioligand competition with […]Lu-PSMA-617, autoradiography on pig salivary gland tissue.

The target in experiment [2] is T1, prostate-specific membrane antigen (PSMA). Kind of experiment: single-concentration ([…]) blocking of […]Lu-PSMA-617 binding, autoradiography.
For experiment [3], the target named is T2, prostate-specific membrane antigen (PSMA) (Homo sapiens, UniProt Q04609).
T2 construct: gene FOLH1
T2 sequence (Q04609 whole entry): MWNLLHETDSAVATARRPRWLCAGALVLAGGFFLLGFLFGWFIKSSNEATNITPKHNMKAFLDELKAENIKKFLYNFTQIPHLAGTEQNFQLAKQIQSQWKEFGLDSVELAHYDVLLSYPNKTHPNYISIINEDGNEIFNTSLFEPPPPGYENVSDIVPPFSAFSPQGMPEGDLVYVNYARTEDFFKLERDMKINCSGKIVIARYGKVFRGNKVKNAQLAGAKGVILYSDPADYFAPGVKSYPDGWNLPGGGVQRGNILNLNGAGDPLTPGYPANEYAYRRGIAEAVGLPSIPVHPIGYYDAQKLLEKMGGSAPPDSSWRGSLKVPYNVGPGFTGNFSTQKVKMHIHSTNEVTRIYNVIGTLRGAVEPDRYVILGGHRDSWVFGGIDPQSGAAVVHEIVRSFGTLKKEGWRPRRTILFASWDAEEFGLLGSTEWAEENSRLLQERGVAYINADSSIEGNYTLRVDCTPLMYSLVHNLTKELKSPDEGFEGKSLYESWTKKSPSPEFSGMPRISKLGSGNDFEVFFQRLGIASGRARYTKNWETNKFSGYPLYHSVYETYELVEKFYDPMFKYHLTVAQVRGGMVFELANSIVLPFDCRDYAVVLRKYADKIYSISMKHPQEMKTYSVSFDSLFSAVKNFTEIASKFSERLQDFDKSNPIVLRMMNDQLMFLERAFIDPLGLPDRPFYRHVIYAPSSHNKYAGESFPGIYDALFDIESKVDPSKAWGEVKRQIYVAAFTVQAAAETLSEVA
Kind of experiment: blocking of […]Lu-PSMA-617 binding with […] 2-PMPA, autoradiography.

Molecules are shown by their SMILES.

T1 sequence (O77564 whole entry): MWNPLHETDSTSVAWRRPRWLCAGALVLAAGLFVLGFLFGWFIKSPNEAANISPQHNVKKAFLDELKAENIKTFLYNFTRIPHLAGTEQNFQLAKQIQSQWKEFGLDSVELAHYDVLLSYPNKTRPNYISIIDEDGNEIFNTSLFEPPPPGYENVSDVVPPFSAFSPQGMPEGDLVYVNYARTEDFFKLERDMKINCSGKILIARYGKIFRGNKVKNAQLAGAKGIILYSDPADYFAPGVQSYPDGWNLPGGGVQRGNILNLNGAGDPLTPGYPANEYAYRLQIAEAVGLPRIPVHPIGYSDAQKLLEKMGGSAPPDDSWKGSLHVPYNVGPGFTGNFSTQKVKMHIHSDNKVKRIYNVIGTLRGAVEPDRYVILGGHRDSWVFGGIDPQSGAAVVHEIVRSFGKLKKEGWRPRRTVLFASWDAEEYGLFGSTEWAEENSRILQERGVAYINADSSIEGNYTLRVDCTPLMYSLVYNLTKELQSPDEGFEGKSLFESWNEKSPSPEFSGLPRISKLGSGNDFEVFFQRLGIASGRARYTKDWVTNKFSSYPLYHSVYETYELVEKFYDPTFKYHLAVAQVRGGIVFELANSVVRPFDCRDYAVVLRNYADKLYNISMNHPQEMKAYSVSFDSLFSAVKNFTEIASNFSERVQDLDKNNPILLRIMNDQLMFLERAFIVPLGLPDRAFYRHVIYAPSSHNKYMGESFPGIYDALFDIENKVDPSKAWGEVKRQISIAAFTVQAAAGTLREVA

As for `O=C(O)CC[C@H](NC(=O)N[C@@H](CCCCNC(=O)[C@H](Cc1ccc2ccccc2c1)NC(=O)[C@H]1CC[C@H](CNC(=O)CN2CCN(CC(=O)O)CCN(CC(=O)O)CCN(CC(=O)O)CC2)CC1)C(=O)O)C(=O)O` [PSMA-617], the IC50 (in general, the concentration that gives 50% inhibition) in experiment [1] amounted to 6 ± 0.1 nM.

As for `O=C(O)CCC(CP(=O)(O)O)C(=O)O` (stereo not drawn) [2-PMPA, 2-Phosphonomethyl pentanedioic acid], in experiment [2], the “single-concentration (80 μM) blocking of [177Lu]Lu-PSMA-617 binding, autoradiogr” value was “Additional blocking with 2-PMPA, a highly potent PSMA-inhibitor, resulted in a reduced uptake of radioligand in the glandular areas”. For the same molecule, in experiment [3], the “blocking of [177Lu]Lu-PSMA-617 binding with 80 μM 2-PMPA, autoradiography” value is on record as “In contrast, LNCaP membrane pellets only showed a negligible non-specific bound fraction”.

The values are drawn from paper PMC6469177, “[^177Lu]Lu-PSMA-617 Salivary Gland Uptake Characterized by Quantitative In Vitro Autoradiography” (Pharmaceuticals, 2019).
